Data published in patent US12528815B2, “5-amino-8-(4-pyridyl)-[1,2,4]triazolo[4,3-c]pyrimidin-3-one compounds for use against cancer” (Nxera Pharma UK Limited, priority 2020, dated 2026).

How the values were obtained:
[1] = molecular target: T1, human adenosine A1 receptor (Homo sapiens, UniProt P30542); experiment: Inhibition binding assay, human adenosine A1 receptor membranes, [3H]DPCPX; settings: 1 nM [3H]DPCPX, 25° C., 1 h; IC50 converted to Ki with Cheng-Prusoff; read-out: A1 pKi (converted)
T1 construct: expressed in transfected cells; host or cells: HEK293 cells infected with BacMam (the same paragraph also labels the preparation CHO-hA1)
T1 sequence (P30542 1-326): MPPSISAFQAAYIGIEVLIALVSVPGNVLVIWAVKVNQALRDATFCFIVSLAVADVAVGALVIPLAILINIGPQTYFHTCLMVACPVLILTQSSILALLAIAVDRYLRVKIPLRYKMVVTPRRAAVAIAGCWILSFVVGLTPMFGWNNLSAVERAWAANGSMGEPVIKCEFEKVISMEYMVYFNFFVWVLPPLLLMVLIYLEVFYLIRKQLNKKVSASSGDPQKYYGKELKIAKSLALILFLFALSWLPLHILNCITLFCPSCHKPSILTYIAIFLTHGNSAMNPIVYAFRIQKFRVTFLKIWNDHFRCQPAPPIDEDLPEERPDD
Outline: (§1)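 Membranes from BacMam-infected HEK293 cells (0.2 μg A2A, 1.4 μg A1) incubated 1 h at 25° C with test compound and 1 nM [3H]ZM241385 (A2A; 50 mM Tris-HCl pH 7.4) or [3H]DPCPX (A1; plus 100 mM NaCl, 10 mM MgCl2). Nonspecific: 1 μM CGS15943 or DPCPX. Filtration, scintillation; IC50 converted to Ki via Cheng-Prusoff.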

[2] = molecular target: T2, human adenosine A2A receptor (Homo sapiens, UniProt P29274); experiment: Inhibition binding assay, human adenosine A2A receptor membranes, [3H]ZM241385; settings: 1 nM [3H]ZM241385, HEK293-hA2A membranes, 25° C., 1 h; IC50 converted to Ki with Cheng-Prusoff; read-out: A2A pKi (converted)
T2 construct: expressed in transfected cells; host or cells: HEK293 cells infected with BacMam
T2 sequence (P29274 whole entry): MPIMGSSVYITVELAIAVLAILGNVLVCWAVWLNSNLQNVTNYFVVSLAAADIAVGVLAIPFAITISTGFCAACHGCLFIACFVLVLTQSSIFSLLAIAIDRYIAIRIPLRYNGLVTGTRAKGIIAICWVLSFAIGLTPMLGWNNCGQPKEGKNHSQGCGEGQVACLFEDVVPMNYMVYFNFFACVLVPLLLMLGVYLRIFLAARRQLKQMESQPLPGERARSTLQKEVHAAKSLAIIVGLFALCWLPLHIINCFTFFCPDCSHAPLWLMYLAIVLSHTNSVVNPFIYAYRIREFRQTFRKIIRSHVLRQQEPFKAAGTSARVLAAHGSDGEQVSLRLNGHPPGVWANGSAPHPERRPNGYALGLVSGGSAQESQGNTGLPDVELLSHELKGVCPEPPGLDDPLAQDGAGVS
Outline: as §1

Structure (SMILES)	Ki [1] [nM]	Ki [2] [nM]
CNC(=O)c1cc(NCCn2nc3c(-c4cc(C)nc(C)c4)c(-c4ccccc4)nc(N)n3c2=O)ccc1Cl [Example 1-91, 5-[2-[5-amino-8-(2,6-dimethyl-4-pyridyl)-3-oxo-7-phenyl-[1,2,4]triazolo[4,3-c]pyrimidin-2-yl]ethylamino]-2-chloro-N-methyl-benzamide]	1000	39.8
Cc1cc(-c2c(-c3ccccc3)nc(N)n3c(=O)n(CCNC(C)c4nnc5ncccn45)nc23)cc(C)n1 (stereo not shown) [Example 1-92, 5-amino-8-(2,6-dimethyl-4-pyridyl)-7-phenyl-2-[2-[1-([1,2,4]triazolo[4,3-a]pyrimidin-3-yl)ethylamino]ethyl]-[1,2,4]triazolo[4,3-c]pyrimidin-3-one]	> 3980	126
Cc1cc(-c2c(-c3ccccc3)nc(N)n3c(=O)n(CCN(C)C4CCN(c5ccccc5)CC4)nc23)cc(C)n1 [Example 1-93, 5-amino-8-(2,6-dimethyl-4-pyridyl)-2-[2-[methyl-(1-phenyl-4-piperidyl)amino]ethyl]-7-phenyl-[1,2,4]triazolo[4,3-c]pyrimidin-3-one]	631	31.6
Cc1cc(-c2c(-c3ccccc3)nc(N)n3c(=O)n(CCN[C@@H](C)c4cccc(C)n4)nc23)cc(C)n1 [Example 1-94, 5-amino-8-(2,6-dimethyl-4-pyridyl)-2-[2-[[(1S)-1-(6-methyl-2-pyridyl)ethyl]amino]ethyl]-7-phenyl-[1,2,4]triazolo[4,3-c]pyrimidin-3-one]	398	10
Cc1cc(N2CCC(NCCn3nc4c(-c5cc(C)nc(C)c5)c(-c5ccccc5)nc(N)n4c3=O)CC2)[nH]n1 [Example 1-95, 5-amino-8-(2,6-dimethyl-4-pyridyl)-2-[2-[[1-(3-methyl-1H-pyrazol-5-yl)-4-piperidyl]amino]ethyl]-7-phenyl-[1,2,4]triazolo[4,3-c]pyrimidin-3-one]	> 2000	316
CC1=NN(c2cccc(NCCn3nc4c(-c5cc(C)nc(C)c5)c(-c5ccccc5)nc(N)n4c3=O)c2)C(=O)C1 [Example 1-98, 5-amino-8-(2,6-dimethyl-4-pyridyl)-2-[2-[3-(3-methyl-5-oxo-4H-pyrazol-1-yl)anilino]ethyl]-7-phenyl-[1,2,4]triazolo[4,3-c]pyrimidin-3-one]	1000	79.4
Cc1cc(-c2c(-c3ccccc3)nc(N)n3c(=O)n(C(CN)Cc4ccc(F)cc4F)nc23)cc(C)n1 (stereo not shown) [Example 1-100, 5-amino-2-[1-(aminomethyl)-2-(2,4-difluorophenyl)ethyl]-8-(2,6-dimethyl-4-pyridyl)-7-phenyl-[1,2,4]triazolo[4,3-c]pyrimidin-3-one]	316	158

More lines, now with the values ahead:

Ki [1] [nM]	Ki [2] [nM]	Structure (SMILES)
251	3.98	Cc1cc(-c2c(-c3ccccc3)nc(N)n3c(=O)n(CCN4CCCCCC4c4cccn4C)nc23)cc(C)n1 (stereo not shown) [Example 1-96, 5-amino-8-(2,6-dimethyl-4-pyridyl)-2-[2-[2-(1-methylpyrrol-2-yl)azepan-1-yl]ethyl]-7-phenyl-[1,2,4]triazolo[4,3-c]pyrimidin-3-one]
> 3980	63.1	Cc1ccc(NC2CCN(CCn3nc4c(-c5cc(C)nc(C)c5)c(-c5ccccc5)nc(N)n4c3=O)CC2)nc1 [Example 1-97, 5-amino-8-(2,6-dimethyl-4-pyridyl)-2-[2-[4-[(5-methyl-2-pyridyl)amino]-1-piperidyl]ethyl]-7-phenyl-[1,2,4]triazolo[4,3-c]pyrimidin-3-one]
12.6	0.501	Cc1cc(-c2c(-c3ccccc3)nc(N)n3c(=O)n(CC4(Cc5ccccc5)CCNCC4)nc23)cc(C)n1 [Example 1-102, 5-amino-2-[(4-benzyl-4-piperidyl)methyl]-8-(2,6-dimethyl-4-pyridyl)-7-phenyl-[1,2,4]triazolo[4,3-c]pyrimidin-3-one]
1000	15.8	Cc1cc(-c2c(-c3ccccc3)nc(N)n3c(=O)n(C(CC4COCCN4)c4ccccc4)nc23)cc(C)n1 (stereo not shown) [Example 1-103, 5-amino-8-(2,6-dimethyl-4-pyridyl)-2-(2-morpholin-3-yl-1-phenyl-ethyl)-7-phenyl-[1,2,4]triazolo[4,3-c]pyrimidin-3-one]
